Like-named read-outs stand apart in the source and are kept apart here.
What was measured:
[1] = molecular target: T1, adrenergic receptor α1B (Rattus norvegicus, UniProt P15823); assay: radioligand binding to adrenergic receptor α1B ([3H] Prazosin)
T1 construct: membrane species from rat liver (rat of Wistar breed) are prepared; from tissue; host or cells: rat (Wistar) liver membranes
T1 sequence (P15823 1-515): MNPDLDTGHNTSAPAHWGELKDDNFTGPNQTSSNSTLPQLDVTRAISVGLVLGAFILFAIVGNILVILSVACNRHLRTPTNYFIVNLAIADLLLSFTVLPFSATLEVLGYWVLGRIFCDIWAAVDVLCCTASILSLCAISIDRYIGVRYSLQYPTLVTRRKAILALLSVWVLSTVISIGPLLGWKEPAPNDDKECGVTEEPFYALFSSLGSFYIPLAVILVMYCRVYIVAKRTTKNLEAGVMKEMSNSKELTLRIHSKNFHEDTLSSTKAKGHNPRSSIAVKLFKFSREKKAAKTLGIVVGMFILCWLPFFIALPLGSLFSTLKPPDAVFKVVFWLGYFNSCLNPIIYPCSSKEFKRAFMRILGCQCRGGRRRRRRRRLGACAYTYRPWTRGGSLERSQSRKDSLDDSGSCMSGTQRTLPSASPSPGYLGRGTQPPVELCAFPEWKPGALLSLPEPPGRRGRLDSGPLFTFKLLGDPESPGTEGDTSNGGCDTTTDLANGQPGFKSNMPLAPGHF
Text: Species heterogeneity of hepatic α1A-, α1B-, and α1C-subtypes. Biochem Biophys Res Commun. 186:760-7676 1992]. […] Prazosin is used as positive control.

[2] = molecular target: T2, human α2A receptor (Homo sapiens, UniProt P08913); assay: radioligand binding to adrenergic receptor α2A ([3H] MK-912)
T2 construct: expressed in transfected cells; host or cells: Sf9
T2 sequence (P08913 1-465): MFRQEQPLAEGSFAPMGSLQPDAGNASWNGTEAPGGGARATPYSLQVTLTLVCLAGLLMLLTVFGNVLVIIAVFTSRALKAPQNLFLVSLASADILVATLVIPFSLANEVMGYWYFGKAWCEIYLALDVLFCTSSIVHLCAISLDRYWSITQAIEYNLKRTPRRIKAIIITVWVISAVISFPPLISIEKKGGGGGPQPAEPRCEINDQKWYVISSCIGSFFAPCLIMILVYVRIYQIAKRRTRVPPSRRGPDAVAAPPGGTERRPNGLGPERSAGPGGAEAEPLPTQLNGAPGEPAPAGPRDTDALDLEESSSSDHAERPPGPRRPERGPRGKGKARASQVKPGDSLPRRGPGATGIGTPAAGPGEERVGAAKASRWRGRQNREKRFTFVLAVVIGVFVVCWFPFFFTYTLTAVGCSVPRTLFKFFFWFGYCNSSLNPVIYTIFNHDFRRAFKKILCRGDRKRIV
Text: J Pharmacol ExpTher. […] Yohimbine is used as positive control.

[3] = molecular target: T3, human D1 receptor (Homo sapiens, UniProt P21728); assay: radioligand binding to dopamine receptor D1 ([3H] SCH-23390); conditions: for Dopamine receptor D1, % inhibition: 10 μM ligand
T3 construct: expressed in transfected cells; host or cells: CHO
Text: For this purpose sDNA of human D1 receptor is expressed in CHO cells, as it was described in [Dearry A, Gingrich J A, Falardeau P, Fremeau R T Jr, Bates M D and Caron M G. Molecular cloning and expression of the gene for a human D1 dopamine receptor. Nature. […] Nature.

[4] = molecular target: T4, human D3 receptor (Homo sapiens, UniProt P35462); assay: radioligand binding to dopamine receptor D3 ([3H] Spiperone); conditions: for Dopamine receptor D3, % inhibition: 10 μM ligand
T4 construct: expressed in transfected cells; host or cells: CHO
Text: For this purpose sDNA of human D3 receptor is expressed in CHO cells, as it was described in [Sokoloff P, Giros B, Martres M-P, Bouthenet M-L and Schwartz J-C. Molecular cloning and characterization of novel dopamine receptor (D3) as target for neuroleptics. Nature. […] Molecular cloning and characterization of novel dopamine receptor (D3) as target for neuroleptics. Nature. […] Spiperone is used as positive control.

[5] = molecular target: T5, human H1 receptor (Homo sapiens, UniProt P35367); assay: radioligand binding to histamine receptor H1 ([3H] Pyrilamine); conditions: for Histamine receptor H1, % inhibition: 10 μM ligand
T5 construct: expressed in transfected cells; host or cells: CHO-K1
Text: Biochem Biophys Res Comm. 197(3): 1601-1608, 1993]. […] Biochem Biophys Res Comm. 197(3): 1601-1608, 1993].
Pyrilamine is used as positive control.

[6] = system: imidazoline receptor I2; assay: radioligand binding to imidazoline receptor I2 ([3H] Idazoxan); parameters: species or system rat
Protocol: Determination of investigated compounds' binding to imidazoline I2 receptor is carried out according to the method described in [Brown C M, MacKinnon A C, McGrath J C, Spedding M and Kilpatrick A T, a2-Adrenoceptor subtypes and imidazoline-like binding in the rat brain. Br J. Pharmacol. 99:803-809, 1990]. […] Idazoxan is used as positive control.

[7] = molecular target: T6, adrenergic receptor α1A (Rattus norvegicus, UniProt P43140); assay: radioligand binding to adrenergic receptor α1A ([3H] Prazosin)
T6 construct: membrane species from rat submaxillary glands (rat of Wistar breed) are prepared; from tissue; host or cells: rat (Wistar) submaxillary gland membranes
T6 sequence (P43140 1-466): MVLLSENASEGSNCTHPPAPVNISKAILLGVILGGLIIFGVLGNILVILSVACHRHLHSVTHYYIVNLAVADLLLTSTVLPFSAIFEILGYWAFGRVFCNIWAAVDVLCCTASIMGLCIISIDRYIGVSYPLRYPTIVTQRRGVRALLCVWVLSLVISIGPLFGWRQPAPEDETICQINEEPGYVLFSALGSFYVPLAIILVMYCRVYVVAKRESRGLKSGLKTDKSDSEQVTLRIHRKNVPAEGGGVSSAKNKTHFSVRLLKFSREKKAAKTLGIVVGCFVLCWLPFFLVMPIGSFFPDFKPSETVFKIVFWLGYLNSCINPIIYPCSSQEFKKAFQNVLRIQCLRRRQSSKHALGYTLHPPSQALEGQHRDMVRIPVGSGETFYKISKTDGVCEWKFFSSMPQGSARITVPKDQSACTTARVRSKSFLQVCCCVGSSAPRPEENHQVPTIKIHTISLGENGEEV
Protocol: Determination of investigated compounds' binding to α1A receptor was carried out according to the method described in [Michel A D, Loury D N and Whiting R l. Identification of a single α1A-adrenoceptor corresponding to the α1A-subtype in rat submaxillary gland. Br J. Pharmacol. 98:883-889, 1989]. […] Prazosin is used as positive control.

[8] = molecular target: T7, recombinant human 5-HT6 receptor (Homo sapiens, UniProt P50406); assay: radioligand binding to serotonin receptor 5-HT6 ([3H] Lysergic acid diethylamide); conditions: for inhibition at 1 µM: read-out: 5-HT6 % inhibition
T7 construct: expressed in transfected cells; host or cells: HeLa
Text: Mol. Pharmacol. 43:320-327, 1993]. […] Methiothepin is used as positive control.

T3 sequence (P21728 whole entry): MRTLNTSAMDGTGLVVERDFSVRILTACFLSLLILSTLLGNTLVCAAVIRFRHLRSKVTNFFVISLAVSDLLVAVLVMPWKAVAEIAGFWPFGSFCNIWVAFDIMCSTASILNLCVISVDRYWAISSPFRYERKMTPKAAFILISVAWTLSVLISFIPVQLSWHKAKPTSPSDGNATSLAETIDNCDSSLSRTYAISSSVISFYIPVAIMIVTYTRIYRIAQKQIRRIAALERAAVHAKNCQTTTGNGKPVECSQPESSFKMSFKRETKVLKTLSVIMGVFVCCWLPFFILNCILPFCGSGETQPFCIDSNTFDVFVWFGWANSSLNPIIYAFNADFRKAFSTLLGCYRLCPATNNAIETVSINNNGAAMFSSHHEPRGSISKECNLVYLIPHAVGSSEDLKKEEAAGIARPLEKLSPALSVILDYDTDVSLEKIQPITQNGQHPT
T7 sequence (P50406 whole entry): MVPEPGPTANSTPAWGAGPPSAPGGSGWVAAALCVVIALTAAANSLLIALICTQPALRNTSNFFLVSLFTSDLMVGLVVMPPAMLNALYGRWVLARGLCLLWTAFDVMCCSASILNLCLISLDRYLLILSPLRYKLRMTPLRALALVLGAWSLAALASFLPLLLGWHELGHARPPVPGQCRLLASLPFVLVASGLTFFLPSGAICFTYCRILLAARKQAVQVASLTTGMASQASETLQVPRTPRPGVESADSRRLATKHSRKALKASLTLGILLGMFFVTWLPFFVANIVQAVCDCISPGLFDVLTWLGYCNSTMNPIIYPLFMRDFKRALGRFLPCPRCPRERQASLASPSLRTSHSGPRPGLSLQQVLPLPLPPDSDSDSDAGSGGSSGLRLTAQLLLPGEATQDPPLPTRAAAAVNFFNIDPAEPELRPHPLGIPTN
T5 sequence (P35367 whole entry): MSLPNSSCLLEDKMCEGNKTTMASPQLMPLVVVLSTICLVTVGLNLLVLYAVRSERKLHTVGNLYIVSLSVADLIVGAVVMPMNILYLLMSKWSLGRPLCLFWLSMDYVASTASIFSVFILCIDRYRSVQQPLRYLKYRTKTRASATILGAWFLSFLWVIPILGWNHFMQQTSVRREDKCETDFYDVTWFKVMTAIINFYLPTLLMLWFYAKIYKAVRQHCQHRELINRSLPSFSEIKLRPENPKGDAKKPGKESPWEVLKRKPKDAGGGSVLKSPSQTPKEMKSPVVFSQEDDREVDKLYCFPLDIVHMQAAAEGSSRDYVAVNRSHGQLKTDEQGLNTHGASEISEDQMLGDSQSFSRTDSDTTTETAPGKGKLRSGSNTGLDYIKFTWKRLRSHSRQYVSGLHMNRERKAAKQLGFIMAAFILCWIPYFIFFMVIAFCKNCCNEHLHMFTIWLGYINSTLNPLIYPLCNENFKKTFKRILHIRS
T4 sequence (P35462 whole entry): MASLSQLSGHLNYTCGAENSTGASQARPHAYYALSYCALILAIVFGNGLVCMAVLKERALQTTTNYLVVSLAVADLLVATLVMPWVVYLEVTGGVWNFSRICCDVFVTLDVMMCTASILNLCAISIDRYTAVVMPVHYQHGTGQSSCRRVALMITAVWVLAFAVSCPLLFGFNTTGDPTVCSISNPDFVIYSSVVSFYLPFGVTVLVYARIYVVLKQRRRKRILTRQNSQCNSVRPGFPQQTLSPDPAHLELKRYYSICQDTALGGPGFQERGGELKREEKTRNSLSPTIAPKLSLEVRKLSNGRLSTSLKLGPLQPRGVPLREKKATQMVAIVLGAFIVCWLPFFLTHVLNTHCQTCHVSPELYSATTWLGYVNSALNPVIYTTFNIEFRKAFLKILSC

| Compound | α-Adrenoceptor α1B, % inhibition ([1]; 10 μM ligand) [%] | α-Adrenoceptor α2A, % inhibition ([2]; 10 μM ligand) [%] | Dopamine receptor D1, % inhibition [3] [%] | Dopamine receptor D3, % inhibition [4] [%] | Histamine receptor H1, % inhibition [5] [%] | imidazoline I2 receptor % inhibition ([6]; 10 μM ligand) [%] | IC50 [7] [nM] | Ki [7] [nM] | IC50 [1] [nM] | Ki [1] [nM] | IC50 [2] [nM] | Ki [2] [nM] | IC50 [8] [nM] | Ki [8] [nM] | nH 5-HT6 [8] | other results |
| --- | --- | --- | --- | --- | --- | --- | --- | --- | --- | --- | --- | --- | --- | --- | --- | --- |
| Cc1ccc2c(c1)[C@@H]1CN(C)CCC[C@@H]1N2CCc1ccc(C)nc1.Cl.Cl.Cl (relative stereo) [1.6.1(2)•3HCl] | 93 | 82 | 55 | 41 | 102 | 80 |  |  |  |  |  |  |  |  |  |  |
| Cc1ccc2c(c1)c1c(n2CCc2ccccn2)CCN(C)C1.Cl.Cl [1.1.2(2-3)•2HCl] |  |  |  |  | 98 | 88 | 450 | 182 | 47 | 26 | 128 | 47.9 | 109 | 50.5 | 0.744 | inhibition at 1 µM ([8]; ligand concentration 1 μM): 97% |
| Cc1ccc2c(c1)[C@H]1CN(C)CCC[C@@H]1N2CCc1cccnc1 [1.6.2(10)•3HCl] | 92 | 92 | 88 | 25 | 103 |  |  |  |  |  |  |  |  |  |  | α-Adrenoceptor α1A, % inhibition ([7]; 10 μM ligand): 86%; inhibition at 1 µM [8]: 93% |
| CN1CCc2c(c3ccccc3n2Cc2ccccc2)C1 [1.9(1)•½NDSA, bis-(5-benzyl-2-methyl-2,3,4,5-tetrahydro-1H-pyrido[4,3-b]indole) naphtalene-1,5-disulfonate] |  |  | 77 | 65 |  |  | 510 | 206 | 1580 | 872 | 123 | 46.1 | 103 | 47.6 | 1.07 | nH α1A [7]: 1.08; α-Adrenoceptor α1A, % inhibition ([7]; 1 μM ligand): 67(1 μM) %; nH α1B [1]: 0.956; α-Adrenoceptor α1B, % inhibition ([1]; 3 μM ligand): 62(3 μM) %; nH α2A [2]: 1.13; α-Adrenoceptor α2A, % inhibition ([2]; 0.3 μM ligand): 73(0.3 μM) %; nH D1 [3]: 1.38; IC50 [4]: 1360 nM; Ki [4]: 462 nM; nH D3 [4]: 1.04; IC50 [5]: 3.97 nM; Ki [5]: 1.9 nM; nH H1 [5]: 0.789; 5-HT6 % inhibition ([8]; 0.3 μM ligand): 78%; imidazoline I2 receptor % inhibition ([6]; 0.3 μM ligand): 87 (0.3 μM) % |

Reference: US20110039825A1, “LIGANDS OF ALPHA-ADRENOCEPTORS, DOPAMINE, HISTAMINE, IMIDAZOLINE AND SEROTONIN RECEPTORS AND THEIR USE” (Alla Chem, LLC, priority 2007, published 2011)
